Test results: PubChem BioAssay AID1963986 (Molecular Pharmacology Branch, DTP, NCI, 2024)
“And” between values parts separate entries of the source, which are not always exact repeats. Identical values can stand only once.

Test system: 171881-019-R-J1-PDC tumor spheroid viability
Assay: Anticancer human tumor 171881-019-R-J1-PDC patient-derived invasive breast carcinoma cell line growth inhibition [PI3K]
Conditions: spheroids with HUVEC and MSC; for viability, T/C: stronger effect = lower value; active means viability on the fitted dose curve at most 10% of control; inactive means the rest
Summary of the method: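 Agents were dosed from a top concentration near clinical Cmax (otherwise 10 microM) in half-log decrements, alone or combined with PI3K inhibitors. The spheroids contain tumor cells plus endothelial (HUVEC) and MSC stroma; viability is measured.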

[1] = curve of first compound, second compound 0.0316 µM
[2] = curve of first compound, second compound 0.1 µM
[3] = curve of first compound, second compound 0.316 µM
[4] = curve of first compound, second compound 1 µM
[5] = second compound 0.0316 µM, first compound 0.0316 µM
[6] = second compound 0.0316 µM, first compound 0.1 µM
[7] = second compound 0.0316 µM, first compound 0.316 µM
[8] = second compound 0.0316 µM, first compound 1 µM
[9] = second compound 0.0316 µM, first compound 3.16 µM
[10] = second compound 0.0316 µM, first compound 10 µM
[11] = second compound 0.1 µM, first compound 0.0316 µM
[12] = second compound 0.1 µM, first compound 0.1 µM
[13] = second compound 0.1 µM, first compound 0.316 µM
[14] = second compound 0.1 µM, first compound 1 µM
[15] = second compound 0.1 µM, first compound 3.16 µM
[16] = second compound 0.1 µM, first compound 10 µM
[17] = second compound 0.316 µM, first compound 0.0316 µM
[18] = second compound 0.316 µM, first compound 0.1 µM
[19] = second compound 0.316 µM, first compound 0.316 µM
[20] = second compound 0.316 µM, first compound 1 µM
[21] = second compound 0.316 µM, first compound 3.16 µM
[22] = second compound 0.316 µM, first compound 10 µM
[23] = second compound 1 µM, first compound 0.0316 µM
[24] = second compound 1 µM, first compound 0.1 µM
[25] = second compound 1 µM, first compound 0.316 µM
[26] = second compound 1 µM, first compound 1 µM
[27] = second compound 1 µM, first compound 3.16 µM
[28] = second compound 1 µM, first compound 10 µM
[29] = curve of first compound, second compound 0.00316 µM
[30] = curve of first compound, second compound 0.01 µM
[31] = second compound 0.00316 µM, first compound 0.0316 µM
[32] = second compound 0.00316 µM, first compound 0.1 µM
[33] = second compound 0.00316 µM, first compound 0.316 µM
[34] = second compound 0.00316 µM, first compound 1 µM
[35] = second compound 0.00316 µM, first compound 3.16 µM
[36] = second compound 0.00316 µM, first compound 10 µM
[37] = second compound 0.01 µM, first compound 0.0316 µM
[38] = second compound 0.01 µM, first compound 0.1 µM
[39] = second compound 0.01 µM, first compound 0.316 µM
[40] = second compound 0.01 µM, first compound 1 µM
[41] = second compound 0.01 µM, first compound 3.16 µM
[42] = second compound 0.01 µM, first compound 10 µM
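Further: spheroids exposed to compound for 7 days before viability read.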
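Wherever viability, T/C is given: 100% = DMSO vehicle-treated spheroids.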

CCCS(=O)(=O)Nc1ccc(F)c(C(=O)c2c[nH]c3ncc(-c4ccc(Cl)cc4)cc23)c1F + CC(Nc1ncnc2nc[nH]c12)c1cc2cccc(Cl)c2c(=O)n1-c1ccccc1
5.38 µM: IC50 [3]
inactive: viability, T/C [5] 90.8% | viability, T/C [6] 87.2% | viability, T/C [7] 97.2% | viability, T/C [8] 84.1% | viability, T/C [9] 92.3% | viability, T/C [10] 12.2% | viability, T/C [11] 98.7% | viability, T/C [12] 81.3% | viability, T/C [13] 95% | viability, T/C [14] 91.4% | viability, T/C [15] 83.3% | viability, T/C [16] 12.8% | viability, T/C [17] 87.4% | viability, T/C [18] 89.1% | viability, T/C [19] 103% | viability, T/C [20] 101% | viability, T/C [21] 83.2% | viability, T/C [22] 11.3% | viability, T/C [23] 95.1% | viability, T/C [24] 107% | viability, T/C [25] 106% | viability, T/C [26] 105% | viability, T/C [27] 97.7% | viability, T/C [28] 11.9% | viability, T/C (second compound 3.16 µM, first compound 0.0316 µM) 90.9% | viability, T/C (second compound 3.16 µM, first compound 0.1 µM) 97% | viability, T/C (second compound 3.16 µM, first compound 0.316 µM) 104% | viability, T/C (second compound 3.16 µM, first compound 1 µM) 121% | viability, T/C (second compound 3.16 µM, first compound 3.16 µM) 103% | viability, T/C (second compound 10 µM, first compound 0.0316 µM) 67.8% | viability, T/C (second compound 10 µM, first compound 0.1 µM) 70.7% | viability, T/C (second compound 10 µM, first compound 0.316 µM) 77.2% | viability, T/C (second compound 10 µM, first compound 1 µM) 90.8% | viability, T/C (second compound 10 µM, first compound 3.16 µM) 82.2%
4.95 µM: IC50 (curve of first compound, second compound 10 µM)
6 µM: IC50 [4]
5.73 µM: IC50 [1]
active: viability, T/C (second compound 3.16 µM, first compound 10 µM) 9.5% | viability, T/C (second compound 10 µM, first compound 10 µM) 6.77%
5.45 µM: IC50 [2]
6.06 µM: IC50 (curve of first compound, second compound 3.16 µM)

C[C@@H](NC(=O)c1ncnc(N)c1Cl)c1ncc(C(=O)Nc2cc(C(F)(F)F)c(Cl)cn2)s1 + CC(Nc1ccc2c(c1)OCCn1cc(N3C(=O)OCC3C(F)F)nc1-2)C(N)=O
inactive: viability, T/C [31] 71.3% | viability, T/C [32] 88.5% | viability, T/C [33] 84.2% | viability, T/C [34] 80.4% | viability, T/C [35] 63.7% | viability, T/C [36] 38.8% | viability, T/C [37] 80.3% | viability, T/C [38] 78.5% | viability, T/C [39] 65.8% | viability, T/C [40] 70.3% | viability, T/C [41] 44.4% | viability, T/C [42] 27.4% | viability, T/C [5] 51.4% | viability, T/C [6] 53.9% | viability, T/C [7] 49.5% | viability, T/C [8] 46.5% | viability, T/C [9] 31.1% | viability, T/C [10] 17.1% | viability, T/C [11] 38.9% | viability, T/C [12] 35.7% | viability, T/C [13] 33.8% | viability, T/C [14] 31.6% | viability, T/C [15] 20.1% | viability, T/C [16] 10.7% | viability, T/C [17] 27% | viability, T/C [18] 24.5% | viability, T/C [19] 24.9% | viability, T/C [20] 23% | viability, T/C [21] 13.5% | viability, T/C [23] 20.7% | viability, T/C [24] 20.9% | viability, T/C [25] 19.3% | viability, T/C [26] 16.4%
active: viability, T/C [22] 6.3% | viability, T/C [27] 9.28% | viability, T/C [28] 3.79%
2.62 µM: IC50 [30]
5.95 µM: IC50 [29]
0.399 µM: IC50 [1]
< 0.0316 µM: IC50 [2] | IC50 [3] | IC50 [4]

Cn1ncnc1[C@H]1c2n[nH]c(=O)c3cc(F)cc(c23)N[C@@H]1c1ccc(F)cc1
inactive: viability, T/C (compound 0.000316 µM) 92.5% [middle of 4 runs] | viability, T/C (compound 0.001 µM) 93.2% [middle of 4 runs] | viability, T/C (compound 0.00316 µM) 97.5% [middle of 4 runs] | viability, T/C (compound 0.01 µM) 98.2% [middle of 4 runs] | viability, T/C (compound 0.0316 µM) 97.7% [middle of 4 runs] | viability, T/C (compound 0.1 µM) 87% [middle of 4 runs]
> 0.1 µM: IC50 (curve of compound)

CC(C)n1nc(-c2ccc3oc(N)nc3c2)c2c(N)ncnc21
inactive: viability, T/C (compound 0.001 µM) 76.3% and 86.4% and 84.6% (2×) | viability, T/C (compound 0.00316 µM) 78.9% [middle of 4 runs] | viability, T/C (compound 0.01 µM) 53.9% [middle of 4 runs] | viability, T/C (compound 0.0316 µM) 24% [middle of 4 runs]
11.9 nM [middle of 4 runs]: IC50 (curve of compound)
active: viability, T/C (compound 0.1 µM) 3.78% [middle of 4 runs]

CC1(C)CCC(Nc2ncc(C(F)(F)F)c(-c3c[nH]c4c(P(C)(C)=O)c(C#N)ccc34)n2)CN1 (centres undefined) + CC(Nc1ccc2c(c1)OCCn1cc(N3C(=O)OCC3C(F)F)nc1-2)C(N)=O
< 0.0316 µM: IC50 [2] | IC50 [3] | IC50 [4]
1.66 µM: IC50 [1]
active: viability, T/C [10] 5.82% | viability, T/C [16] 2.6% | viability, T/C [22] 1.37% | viability, T/C [28] 1.29%
5.04 µM: IC50 [29]
4.48 µM: IC50 [30]
inactive: viability, T/C [31] 68% | viability, T/C [32] 70.8% | viability, T/C [33] 74.5% | viability, T/C [34] 72.6% | viability, T/C [35] 81.4% | viability, T/C [36] 15.6% | viability, T/C [37] 60.8% | viability, T/C [38] 65.4% | viability, T/C [39] 65.8% | viability, T/C [40] 73.6% | viability, T/C [41] 66.9% | viability, T/C [42] 12% | viability, T/C [5] 44.7% | viability, T/C [6] 49.7% | viability, T/C [7] 54.6% | viability, T/C [8] 57.4% | viability, T/C [9] 47.4% | viability, T/C [11] 34.1% | viability, T/C [12] 37% | viability, T/C [13] 39.9% | viability, T/C [14] 40.4% | viability, T/C [15] 33.3% | viability, T/C [17] 27.7% | viability, T/C [18] 26.8% | viability, T/C [19] 30.2% | viability, T/C [20] 29.4% | viability, T/C [21] 24.4% | viability, T/C [23] 21.3% | viability, T/C [24] 22.5% | viability, T/C [25] 23.6% | viability, T/C [26] 22.9% | viability, T/C [27] 16.8%
